Among the data in ChEMBL document CHEMBL3867433, “Synthesis and antimicrobial activity of styryl/pyrrolyl/pyrazolyl sulfonylmethyl-1,3,4-oxadiazolyl amines and styryl/pyrrolyl/pyrazolyl sulfonylmethyl-1,3,4-thiadiazolyl amines” (2016) are zone of inhibition and inhibition zone (IZ) values, retold here.

Common to all, as to assay type: functional
Assay [1] has as its system Staphylococcus aureus. Nature of the assay: Antibacterial activity against Staphylococcus aureus at 12.5 ug/well after 24 hrs by agar well diffusion method. Conditions: read-out: DIZ. Background: Agar diffusion results depend on both activity and mobility in agar.
In assay [2] the test system is Staphylococcus aureus. Nature of the assay: Antibacterial activity against Staphylococcus aureus at 25 ug/well after 24 hrs by agar well diffusion method. Conditions: read-out: DIZ.
Assay [3] deals with Staphylococcus aureus. Nature of the assay: Antibacterial activity against Staphylococcus aureus at 50 ug/well after 24 hrs by agar well diffusion method. Particulars: read-out: DIZ.
The test system of assay [4] is Staphylococcus aureus. Nature of the assay: Antibacterial activity against Staphylococcus aureus at 100 ug/well after 24 hrs by agar well diffusion method. Particulars: read-out: DIZ.
Assay [5] concerns Bacillus subtilis. Put plainly: Antibacterial activity against Bacillus subtilis at 50 ug/well after 24 hrs by agar well diffusion method. Particulars: read-out: DIZ.
The test system of assay [6] is Bacillus subtilis. Nature of the assay: Antibacterial activity against Bacillus subtilis at 100 ug/well after 24 hrs by agar well diffusion method. Particulars: read-out: DIZ.
Assay [7] deals with Pseudomonas aeruginosa. Nature of the assay: Antibacterial activity against Pseudomonas aeruginosa at 12.5 ug/well after 24 hrs by agar well diffusion method. Conditions: read-out: DIZ.
The test system of assay [8] is Pseudomonas aeruginosa. Nature of the assay: Antibacterial activity against Pseudomonas aeruginosa at 25 ug/well after 24 hrs by agar well diffusion method. Conditions: read-out: DIZ.
Assay [9] relates to Pseudomonas aeruginosa. Nature of the assay: Antibacterial activity against Pseudomonas aeruginosa at 50 ug/well after 24 hrs by agar well diffusion method. Conditions: read-out: DIZ.
Assay [10] deals with Pseudomonas aeruginosa. Nature of the assay: Antibacterial activity against Pseudomonas aeruginosa at 100 ug/well after 24 hrs by agar well diffusion method. Particulars: read-out: DIZ.
The subject of assay [11] is Klebsiella pneumoniae. Put plainly: Antibacterial activity against Klebsiella pneumoniae at 12.5 ug/well after 24 hrs by agar well diffusion method. Conditions: read-out: DIZ.
Assay [12] has as its system Klebsiella pneumoniae. Put plainly: Antibacterial activity against Klebsiella pneumoniae at 25 ug/well after 24 hrs by agar well diffusion method. Particulars: read-out: DIZ.
The test system of assay [13] is Klebsiella pneumoniae. Nature of the assay: Antibacterial activity against Klebsiella pneumoniae at 50 ug/well after 24 hrs by agar well diffusion method. Conditions: read-out: DIZ.
Assay [14] relates to Klebsiella pneumoniae. Put plainly: Antibacterial activity against Klebsiella pneumoniae at 100 ug/well after 24 hrs by agar well diffusion method. Particulars: read-out: DIZ.
The subject of assay [15] is Aspergillus niger. Nature of the assay: Antifungal activity against Aspergillus niger assessed as inhibition of spore germination at 25 ug/well after 48 hrs by agar well diffusion method. Conditions: read-out: DIZ.
Assay [16] concerns Aspergillus niger. Put plainly: Antifungal activity against Aspergillus niger assessed as inhibition of spore germination at 50 ug/well after 48 hrs by agar well diffusion method. Particulars: read-out: DIZ.
Assay [17] has as its system Aspergillus niger. Nature of the assay: Antifungal activity against Aspergillus niger assessed as inhibition of spore germination at 100 ug/well after 48 hrs by agar well diffusion method. Conditions: read-out: DIZ.
The nature of assay [18]: Antifungal activity against Penicillium chrysogenum assessed as inhibition of spore germination at 12.5 ug/well after 48 hrs by agar well diffusion method.
Assay [19] is described as follows: Antifungal activity against Penicillium chrysogenum assessed as inhibition of spore germination at 25 ug/well after 48 hrs by agar well diffusion method.
A short description of assay [20]: Antifungal activity against Penicillium chrysogenum assessed as inhibition of spore germination at 50 ug/well after 48 hrs by agar well diffusion method.
Assay [21] in a line: Antifungal activity against Penicillium chrysogenum assessed as inhibition of spore germination at 100 ug/well after 48 hrs by agar well diffusion method.
In assay [22] the test system is Bacillus subtilis. Nature of the assay: Antibacterial activity against Bacillus subtilis at 12.5 ug/well after 24 hrs by agar well diffusion method. Particulars: read-out: DIZ.
The subject of assay [23] is Bacillus subtilis. Put plainly: Antibacterial activity against Bacillus subtilis at 25 ug/well after 24 hrs by agar well diffusion method. Conditions: read-out: DIZ.
Assay [24] concerns Aspergillus niger. Nature of the assay: Antifungal activity against Aspergillus niger assessed as inhibition of spore germination at 12.5 ug/well after 48 hrs by agar well diffusion method. Particulars: read-out: DIZ.

For `Nc1nnc(CS(=O)(=O)c2c[nH]cc2-c2ccc(Cl)cc2)o1`, the zone of inhibition at 12.5 µg/disc stood at 7 mm with Staphylococcus aureus [1], 9 mm in the assay with Pseudomonas aeruginosa [7] and 8 mm in the assay on Klebsiella pneumoniae [11]. The zone of inhibition at 25 µg/disc in the assay with Staphylococcus aureus [2] is 8 mm; in the assay on Pseudomonas aeruginosa [8], 11 mm; with Klebsiella pneumoniae [12], 10 mm; with Aspergillus niger [15] it was 10 mm. Besides, the zone of inhibition at 50 µg/disc with Staphylococcus aureus [3] stood at 9 mm; in the assay with Bacillus subtilis [5] it was 11 mm; in the assay on Pseudomonas aeruginosa [9], 13 mm; with Klebsiella pneumoniae [13] it was 12 mm; in the assay on Aspergillus niger [16] it was 9 mm. The zone of inhibition at 100 µg/disc was 12 mm with Staphylococcus aureus [4]; 13 mm in the assay with Bacillus subtilis [6]; 15 mm in the assay on Pseudomonas aeruginosa [10]; 14 mm in the assay on Klebsiella pneumoniae [14]; 14 mm in the assay on Aspergillus niger [17]. Moreover, the inhibition zone (IZ) came to 12 mm in assay [18], 14 mm in assay [19], 16 mm in assay [20] and 18 mm in [21].
In the case of `Nc1nnc(CS(=O)(=O)/C=C\c2ccccc2)s1`, the zone of inhibition at 12.5 µg/disc stood at 21 mm in the assay on Staphylococcus aureus [1]; 27 mm in the assay on Bacillus subtilis [22]; 23 mm in the assay with Pseudomonas aeruginosa [7]; 27 mm with Klebsiella pneumoniae [11]; 25 mm in the assay with Aspergillus niger [24]. Also, the zone of inhibition at 25 µg/disc in the assay with Staphylococcus aureus [2] was determined as 22 mm; with Bacillus subtilis [23], 28 mm; in the assay with Pseudomonas aeruginosa [8] it was 25 mm; in the assay with Klebsiella pneumoniae [12], 29 mm; in the assay on Aspergillus niger [15], 27 mm. Further, the zone of inhibition at 50 µg/disc with Staphylococcus aureus [3] came to 23 mm; in the assay with Bacillus subtilis [5] it was 29 mm; in the assay on Pseudomonas aeruginosa [9], 27 mm; with Klebsiella pneumoniae [13], 31 mm; in the assay on Aspergillus niger [16], 29 mm. In addition, the zone of inhibition at 100 µg/disc in the assay with Staphylococcus aureus [4] came to 25 mm; with Bacillus subtilis [6] it was 31 mm; in the assay with Pseudomonas aeruginosa [10] it was 29 mm; with Klebsiella pneumoniae [14], 33 mm; in the assay with Aspergillus niger [17] it was 31 mm. Also, the inhibition zone (IZ) in assay [18] worked out at 29 mm; in assay [19] it was 34 mm; in assay [20] it was 36 mm; in [21], 35 mm.
Regarding `Cc1ccc(-c2c[nH]cc2S(=O)(=O)Cc2nnc(N)s2)cc1`, the zone of inhibition at 12.5 µg/disc is 15 mm in the assay with Staphylococcus aureus [1]; 18 mm with Bacillus subtilis [22]; 17 mm in the assay with Pseudomonas aeruginosa [7]; 20 mm with Klebsiella pneumoniae [11]; 9 mm in the assay with Aspergillus niger [24]. For the same compound, the zone of inhibition at 25 µg/disc in the assay with Staphylococcus aureus [2] stood at 17 mm; with Bacillus subtilis [23], 19 mm; in the assay with Pseudomonas aeruginosa [8], 19 mm; in the assay on Klebsiella pneumoniae [12], 22 mm; with Aspergillus niger [15], 11 mm. Moreover, the zone of inhibition at 50 µg/disc in the assay on Staphylococcus aureus [3] came to 19 mm; in the assay on Bacillus subtilis [5], 20 mm; in the assay on Pseudomonas aeruginosa [9], 21 mm; in the assay with Klebsiella pneumoniae [13], 24 mm; in the assay on Aspergillus niger [16], 13 mm. Moreover, the zone of inhibition at 100 µg/disc with Staphylococcus aureus [4] stood at 22 mm; in the assay on Bacillus subtilis [6] it was 22 mm; in the assay on Pseudomonas aeruginosa [10], 23 mm; in the assay on Klebsiella pneumoniae [14] it was 26 mm; in the assay on Aspergillus niger [17], 15 mm. The inhibition zone (IZ) in assay [18] worked out at 22 mm; in assay [19] it was 24 mm; in assay [20] it was 26 mm; in assay [21] it was 28 mm.
With `Nc1nnc(CS(=O)(=O)c2c[nH]cc2-c2ccccc2)s1`, the zone of inhibition at 12.5 µg/disc in the assay with Staphylococcus aureus [1] amounted to 17 mm; in the assay on Bacillus subtilis [22], 20 mm; in the assay on Pseudomonas aeruginosa [7], 19 mm; in the assay on Klebsiella pneumoniae [11], 26 mm; with Aspergillus niger [24], 12 mm. Also, the zone of inhibition at 25 µg/disc with Staphylococcus aureus [2] came out at 19 mm; in the assay on Bacillus subtilis [23], 21 mm; with Pseudomonas aeruginosa [8], 21 mm; in the assay with Klebsiella pneumoniae [12], 27 mm; with Aspergillus niger [15] it was 14 mm. For the same compound, the zone of inhibition at 50 µg/disc in the assay on Staphylococcus aureus [3] came to 22 mm; in the assay on Bacillus subtilis [5] it was 22 mm; with Pseudomonas aeruginosa [9] it was 23 mm; with Klebsiella pneumoniae [13], 29 mm; with Aspergillus niger [16] it was 16 mm. In addition, the zone of inhibition at 100 µg/disc amounted to 24 mm with Staphylococcus aureus [4]; 24 mm in the assay on Bacillus subtilis [6]; 25 mm with Pseudomonas aeruginosa [10]; 31 mm in the assay on Klebsiella pneumoniae [14]; 18 mm in the assay on Aspergillus niger [17]. Besides, the inhibition zone (IZ) in assay [18] turned out to be 25 mm; in assay [19] it was 27 mm; in [20], 29 mm; in [21] it was 31 mm.
Turning to `Nc1nnc(CS(=O)(=O)/C=C\c2ccc(Cl)cc2)o1`, the zone of inhibition at 12.5 µg/disc in the assay on Staphylococcus aureus [1] is 12 mm; in the assay on Bacillus subtilis [22], 13 mm; with Pseudomonas aeruginosa [7] it was 15 mm; with Klebsiella pneumoniae [11] it was 16 mm; with Aspergillus niger [24], 13 mm. The zone of inhibition at 25 µg/disc in the assay with Staphylococcus aureus [2] worked out at 14 mm; with Bacillus subtilis [23], 14 mm; with Pseudomonas aeruginosa [8] it was 17 mm; in the assay on Klebsiella pneumoniae [12] it was 18 mm; with Aspergillus niger [15], 15 mm. The zone of inhibition at 50 µg/disc is 16 mm in the assay with Staphylococcus aureus [3]; 15 mm with Bacillus subtilis [5]; 19 mm in the assay on Pseudomonas aeruginosa [9]; 20 mm in the assay with Klebsiella pneumoniae [13]; 17 mm in the assay on Aspergillus niger [16]. In addition, the zone of inhibition at 100 µg/disc in the assay with Staphylococcus aureus [4] turned out to be 20 mm; in the assay on Bacillus subtilis [6], 17 mm; in the assay with Pseudomonas aeruginosa [10] it was 21 mm; in the assay with Klebsiella pneumoniae [14], 22 mm; with Aspergillus niger [17] it was 19 mm. Further, the inhibition zone (IZ) in assay [18] amounted to 15 mm; in [19], 16 mm; in assay [20] it was 18 mm; in assay [21] it was 20 mm.
On to `Nc1nnc(CS(=O)(=O)c2n[nH]cc2-c2ccc(Cl)cc2)o1`, for which the zone of inhibition at 12.5 µg/disc in the assay on Staphylococcus aureus [1] stood at 8 mm; in the assay on Bacillus subtilis [22], 8 mm; in the assay with Pseudomonas aeruginosa [7] it was 12 mm; in the assay on Klebsiella pneumoniae [11], 11 mm. The zone of inhibition at 25 µg/disc came to 10 mm with Staphylococcus aureus [2]; 9 mm with Bacillus subtilis [23]; 14 mm with Pseudomonas aeruginosa [8]; 13 mm in the assay with Klebsiella pneumoniae [12]; 9 mm in the assay on Aspergillus niger [15]. Besides, the zone of inhibition at 50 µg/disc in the assay with Staphylococcus aureus [3] worked out at 12 mm; in the assay on Bacillus subtilis [5], 12 mm; with Pseudomonas aeruginosa [9] it was 16 mm; in the assay on Klebsiella pneumoniae [13], 15 mm; with Aspergillus niger [16], 11 mm. The zone of inhibition at 100 µg/disc was determined as 15 mm in the assay on Staphylococcus aureus [4]; 13 mm in the assay with Bacillus subtilis [6]; 18 mm in the assay on Pseudomonas aeruginosa [10]; 17 mm with Klebsiella pneumoniae [14]; 13 mm in the assay on Aspergillus niger [17]. For the same compound, the inhibition zone (IZ) in assay [18] amounted to 12 mm; in assay [19], 13 mm; in [20], 15 mm; in assay [21] it was 17 mm.
In the case of `Cc1ccc(/C=C\S(=O)(=O)Cc2nnc(N)o2)cc1`, the zone of inhibition at 50 µg/disc was found to be 12 mm with Staphylococcus aureus [3]; 11 mm in the assay with Bacillus subtilis [5]; 16 mm in the assay with Pseudomonas aeruginosa [9]; 15 mm with Klebsiella pneumoniae [13]; 11 mm with Aspergillus niger [16]. The zone of inhibition at 100 µg/disc with Staphylococcus aureus [4] came to 14 mm; with Bacillus subtilis [6], 14 mm; with Pseudomonas aeruginosa [10], 18 mm; in the assay on Klebsiella pneumoniae [14] it was 17 mm; in the assay with Aspergillus niger [17], 13 mm. Moreover, the zone of inhibition at 12.5 µg/disc in the assay on Bacillus subtilis [22] was 8 mm; with Pseudomonas aeruginosa [7], 12 mm; in the assay with Klebsiella pneumoniae [11] it was 11 mm; in the assay on Aspergillus niger [24] it was 8 mm. For the same compound, the zone of inhibition at 25 µg/disc with Bacillus subtilis [23] worked out at 9 mm; in the assay with Pseudomonas aeruginosa [8] it was 14 mm; in the assay on Klebsiella pneumoniae [12], 13 mm; with Aspergillus niger [15] it was 10 mm. The inhibition zone (IZ) in assay [18] amounted to 10 mm; in assay [19], 12 mm; in assay [20] it was 14 mm; in [21], 16 mm.
